According to patent US20220127232A1, “HISTONE ACETYLTRANSFERASE MODULATORS AND COMPOSITIONS AND USES THEREOF” (The Trustees of Columbia University in the City of New York, priority 2019, published 2022):
“Also recorded” adds a separate entry of the source. Read-outs that look alike come from different tables or passages of the source.

Key:
mice = experiment: Contextual fear memory; format: in vivo
Protocol: FIG. 28 is a graph showing that RA010115 rescues oTau- and oAβ-induced defects in contextual fear memory. There is statistical significance when comparing all groups during testing for contextual fear memory at 24 hrs after the electric shock (ANOVA among all groups: F(5, 57)=5.558 p=0.0003). […] The performance was not impaired when mice were treated with only RA010115 or vehicle.

[1] = Stability in human liver microsomes; format: in vitro ADME; conditions: for microsomal CLint at 1 μM / half-life at 1 μM: both sexes, human, liver microsomes, pH 7.4, human liver microsomes
Protocol: Some compounds were tested for stability in human liver microsomes as shown below in Table 2.
Mixed-gender human liver microsomes (Lot #1010420) were purchased from XenoTech. The reaction mixture, minus NADPH, was prepared as described below. The test article was added into the reaction mixture at a final concentration of 1 μM. The control compound, testosterone, was run simultaneously with the test article in a separate reaction. An aliquot of the reaction mixture (without cofactor) was equilibrated in a shaking water bath at 37° C. for 3 minutes. The reaction was initiated by the addition of the cofactor, and the mixture was incubated in a shaking water bath at 37° C. Aliquots (100 μL) were withdrawn at 0, 10, 20, 30, and 60 minutes. Test article and testosterone samples were immediately combined with 400 μL of ice-cold 50/50 acetonitrile (ACN)/H2O containing 0.1% formic acid and internal standard to terminate the reaction. The samples were then mixed and centrifuged to precipitate proteins. All samples were assayed by LC-MS/MS using electrospray ionization. Analytical conditions are outlined in Appendix 1. The peak area response ratio (PARR) to internal standard was compared to the PARR at time 0 to determine the percent remaining at each time point. Half-lives and clearance were calculated using GraphPad software, fitting to a single-phase exponential decay equation.
Liver Microsomes 0.5 mg/mL NADPH (cofactor) 1 mM
Potassium Phosphate, pH 7.4 100 mM
Intrinsic clearance (CLint) was calculated based on CLint=k/P, where k is the elimination constant and P is the protein concentration in the incubation.

[2] = test system: hippocampal slices from WT mice; experiment: Long-term potentiation (LTP) in hippocampal slices perfused with oTau or oAβ; format: cell-based
Text: Synaptic dysfunction is a major hallmark of AD (Histol Histopathol, 1995. 10(2): p. 509-19; herein incorporated by reference in its entirety). An aspect of the drug screening protocol can include a measurement of the effect of compounds onto synaptic function. Amyloid-beta (Aβ) is a toxic peptide that is thought to underlie subtle amnesic changes occurring at early stages of Alzheimer's disease. It impairs both memory and its electrophysiological surrogate, long-term potentiation (LTP). LTP can be examined because it is a type of synaptic plasticity thought to underlie learning and memory. RA010115 can rescue the Aβ-induced reduction of LTP, and other compounds can also be screened to identify those that can re-establish normal LTP. The compounds can be applied for 20 min. Controls can be performed on slices in the absence of Aβ, and mice treated with compound. Tau is another peptide that is involved in cell to cell communication, and impairs both memory and LTP in animal models of AD and other tauopathies. FIG. 26 is a graph showing that RA010115 rescues oligomeric Tau (oTau)- and oligomeric Aβ (o Aβ)-induced LTP deficits. LTP was impaired in hippocampal slices from WT mice perfused with oTau (50 nM) and oAβ (200 nM), whereas there was no impairment in slices treated with RA10115 or vehicle. LTP was restored in slices perfused with RA010115 and either oTau or oAβ. The horizontal solid bar represents oAβ and oTau perfusion while the horizontal dashed bar represents RA010115. The three arrows correspond to the theta-burst stimulation. […]

## COc1cccc(OC)c1C(=O)Nc1ccc(Cl)c(C(F)(F)F)c1 [RA010115]
mice; 24 hrs after the electric shock
  oTau- and oAβ-induced defects in contextual fear memory (freezing): rescues
mice; mice treated with only compound
  Contextual fear memory performance, compound alone: not impaired
[1]; calculated value printed in parentheses behind the bound, read-out: CLint, value in parentheses
  microsomal CLint at 1 μM: 150 µL/min/mg
[1]; fitted value printed in parentheses behind the bound, read-out: Half-life, value in parentheses
  half-life at 1 μM: 9.25 min
[1]; read-out: CLint
  microsomal CLint at 1 μM: > 139 µL/min/mg
[1]; read-out: Half-life
  half-life at 1 μM: < 10 min
[1]; human liver microsomes, test article 1 μM, 0 min
  % Remaining of Initial (n = 1) 0 min: 100%
[1]; human liver microsomes, test article 1 μM, 10 min
  % Remaining of Initial (n = 1) 10 min: 47.7%
[1]; human liver microsomes, test article 1 μM, 20 min
  % Remaining of Initial (n = 1) 20 min: 21.1%
[1]; human liver microsomes, test article 1 μM, 30 min
  % Remaining of Initial (n = 1) 30 min: 11.4%
[1]; human liver microsomes, test article 1 μM, 60 min
  % Remaining of Initial (n = 1) 60 min: 2.59%
[2]; no oTau or oAβ
  LTP in slices treated with compound alone: no impairment
[2]; slices perfused with compound and either oTau (50 nM) or oAβ (200 nM)
  oTau- and oAβ-induced LTP deficits: restored; also recorded: rescues
